Results on eleven molecules are retold here after US8445476B2, “Carbacephem β-lactam antibiotics” (Achaogen, Inc., priority 2007, dated 2013).

Common to all, as to format: cell-based
Experiment [1] relates to S. aureus ASAU001 (Susceptible Organism ATCC 29213). Put plainly: MIC assay, S. aureus ASAU001. The note with it: Staphylococcus aureus, ATCC29213, read-out: MIC ASAU 001. The procedure: (§1) The in vitro MIC for bacterial isolates may be obtained in the following manner: a test compound is incorporated into a series of two-fold dilutions in cation adjusted Mueller-Hinton broth (CAMHB). Different bacterial strains diluted to provide a uniform inoculum are added to the CAMHB containing test compounds. A well without test compound is included for each strain as a growth control. […] The procedures used in these experiments are generally those standardized by the Clinical and Laboratory Standards Institute (CLSI), as set forth in the CLSI publication entitled “M7-A7. Methods for dilution antimicrobial susceptibility tests for bacteria that grow aerobically; approved standard-seventh edition.” (2006), which is incorporated by reference as if fully set forth herein. The following exemplifies such a procedure although it is to be understood that modifications of the procedure may be implemented as required.
(§2) Two-fold dilutions of the test compounds are prepared in CAMHB at 2× the concentration range to be tested if the compounds are soluble in aqueous solution. Alternately, dimethylsulfoxide (DMSO) is used to prepare two-fold dilutions at 10× the concentration range to be tested. Reference drugs such as cefotaxime, vancomycin or imipenem are used as positive controls. A few isolated colonies are retrieved from a pure culture prepared on an agar plate and suspended in PBS until the turbidity of the suspension matches a 0.5 McFarland standard which is equal to approximately 10^8 sCFU/mL. This solution is further diluted in CAMHB to 10^6CFU/mL if compounds are diluted in CAMHB and 5×10^5 CFU/mL if compounds are diluted in DMSO. The CAMHB plates containing the compound dilutions are combined in equal volumes with the higher density inoculum, or 10 μL of the DMSO dilutions are added to the lower density inoculum. When S. aureus is the organism being tested and the compound is oxacillin, a beta-lactam or a carbacephem compound of the present invention, 2% NaCl is added to the growth media. The plates are then incubated for 16-20 hours at 35° C. The plates are then observed to determine which concentration of the test compound is the MIC.

In experiment [2] the test system is S. aureus ASAU1033 (MRSA, CIP, ERY, CLIN, TET, GEN resistant). Put plainly: MIC assay, S. aureus ASAU1033. The note with it: Staphylococcus aureus, read-out: MIC ASAU 1033. The method, then:
as §1, §2

Experiment [3] concerns S. aureus ASAU1043 (MRSA, CIP, ERY, CLI, GEN resistant). The experiment in a line: MIC assay, S. aureus ASAU1043. Particulars: Staphylococcus aureus, read-out: MIC ASAU 1043. The method, then:
as §1, §2

Experiment [4] relates to S. aureus ASAU1029 (CA-MRSA, USA300). Put plainly: MIC assay, S. aureus ASAU1029. Particulars: Staphylococcus aureus, read-out: MIC ASAU 1029. The method, then:
as §1, §2

The test system of experiment [5] is S. aureus ASAU002 (MRSA ATCC 33591). The experiment in a line: MIC assay, S. aureus ASAU002. The note with it: Staphylococcus aureus; S. aureus ASAU002, MRSA ATCC 33591; read-out: MIC ASAU 002. The procedure:
as §1, §2

Experiment [6] relates to S. aureus ASAU1028 (CA-MRSA, USA400). Put plainly: MIC assay, S. aureus ASAU1028. The note with it: Staphylococcus aureus, read-out: MIC ASAU 1028. The procedure:
as §1, §2

In brackets after ≈: the same amount, converted by molar mass.

Take `Nc1nc(/C(=N/O)C(=O)N[C@@H]2C(=O)N3C(C(=O)O)=C(Sc4cscn4)CC[C@H]23)c(Cl)s1` [35/1, (6R,7S,Z)-7-(2-(2-amino-5-chlorothiazol-4-yl)-2-(hydroxyimino)acetamido)-8-oxo-3-(thiazol-4-ylthio)-1-aza-bicyclo[4.2.0]oct-2-ene-2-carboxylic Acid]: the MIC in experiment [1] was not above 1 µg/mL; in experiment [2], more than 8 µg/mL; in experiment [3] it was more than 8 µg/mL; in experiment [4], 1 to 8 µg/mL (≈ 2 to 16 µM); in experiment [5], more than 8 µg/mL; in experiment [6], 1 to 8 µg/mL (≈ 2 to 16 µM).

As to `Nc1nc(/C(=N/O)C(=O)N[C@@H]2C(=O)N3C(C(=O)O)=C(Sc4ccncc4)CC[C@H]23)c(Cl)s1` [27/1, (6R,7S,Z)-7-(2-(2-amino-5-chlorothiazol-4-yl)-2-(hydroxyimino)acetamido)-8-oxo-3-(pyridin-4-ylthio)-1-aza-bicyclo[4.2.0]oct-2-ene-2-carboxylic Acid], the minimal inhibitory concentration (MIC) in experiment [1] is not above 1 µg/mL; in experiment [2], 1 to 8 µg/mL (≈ 2.02 to 16.2 µM); in experiment [3] it was 1 to 8 µg/mL (≈ 2.02 to 16.2 µM); in experiment [4] it was not above 1 µg/mL; in experiment [5], 1 to 8 µg/mL (≈ 2.02 to 16.2 µM); in experiment [6], not above 1 µg/mL.

On to `Nc1nc(/C(=N\O)C(=O)NC2C(=O)N3C(C(=O)O)=C(/C=C4\CCN(C5CCNC5)C4=O)CS[C@H]23)ns1` (stereo partly drawn) [Comparative Compound 1, reference compound], for which the minimal inhibitory concentration (MIC) was not above 1 µg/mL in experiment [1]; 1 to 8 µg/mL (≈ 1.87 to 15 µM) in experiment [2]; 1 to 8 µg/mL (≈ 1.87 to 15 µM) in experiment [3]; not above 1 µg/mL in experiment [4]; 1 to 8 µg/mL (≈ 1.87 to 15 µM) in experiment [5]; 1 to 8 µg/mL (≈ 1.87 to 15 µM) in experiment [6].

With `Nc1nc(/C(=N/O)C(=O)N[C@@H]2C(=O)N3C(C(=O)O)=C(Sc4nnc(N)s4)CC[C@H]23)ns1` [45/1, (6R,7S,Z)-7-(2-(5-amino-1,2,4-thiadiazol-3-yl)-2-(hydroxyimino)acetamido)-3-(5-amino-1,3,4-thiadiazol-2-ylthio)-8-oxo-1-aza-bicyclo[4.2.0]oct-2-ene-2-carboxylic Acid], the MIC in experiment [1] was not above 1 µg/mL; in experiment [2] it was more than 8 µg/mL; in experiment [3] it was more than 8 µg/mL; in experiment [4], not above 1 µg/mL; in experiment [6], 1 to 8 µg/mL (≈ 2.07 to 16.5 µM).

As to `Cc1nc(SC2=C(C(=O)O)N3C(=O)[C@@H](NC(=O)/C(=N\O)c4nc(N)sc4Cl)[C@H]3CC2)sc1C` [33/1, (6R,7S,Z)-7-(2-(2-amino-5-chlorothiazol-4-yl)-2-(hydroxyimino)acetamido)-3-(4,5-dimethylthiazol-2-ylthio)-8-oxo-1-aza-bicyclo[4.2.0]oct-2-ene-2-carboxylic Acid], the minimal inhibitory concentration (MIC) in experiment [1] is not above 1 µg/mL; in experiment [2], 1 to 8 µg/mL (≈ 1.89 to 15.1 µM); in experiment [3] it was 1 to 8 µg/mL (≈ 1.89 to 15.1 µM); in experiment [4], not above 1 µg/mL; in experiment [5], 1 to 8 µg/mL (≈ 1.89 to 15.1 µM); in experiment [6], 1 to 8 µg/mL (≈ 1.89 to 15.1 µM).

On to `Nc1nc(/C(=N/O)C(=O)N[C@@H]2C(=O)N3C(C(=O)O)=C(Sc4ccncc4)CC[C@H]23)ns1` [44/1, (6R,7S,Z)-7-(2-(5-amino-1,2,4-thiadiazol-3-yl)-2-(hydroxyimino)acetamido)-8-oxo-3-(pyridin-4-ylthio)-1-aza-bicyclo[4.2.0]oct-2-ene-2-carboxylic Acid], for which the minimal inhibitory concentration (MIC) is not above 1 µg/mL in experiment [1]; more than 8 µg/mL in experiment [2]; more than 8 µg/mL in experiment [3]; not above 1 µg/mL in experiment [4]; 1 to 8 µg/mL (≈ 2.17 to 17.3 µM) in experiment [6].

On to `NCCSCc1ncccc1SC1=C(C(=O)O)N2C(=O)[C@@H](NC(=O)/C(=N\O)c3nsc(N)n3)[C@H]2CC1` [47/1, (6R,7S,Z)-7-(2-(5-amino-1,2,4-thiadiazol-3-yl)-2-(hydroxyimino)acetamido)-3-(2-((2-aminoethylthio)methyl)pyridin-3-ylthio)-8-oxo-1-aza-bicyclo[4.2.0]oct-2-ene-2-carboxylic Acid], for which the MIC is not above 1 µg/mL in experiment [1]; 1 to 8 µg/mL (≈ 1.82 to 14.5 µM) in experiment [2]; 1 to 8 µg/mL (≈ 1.82 to 14.5 µM) in experiment [3]; not above 1 µg/mL in experiment [4]; 1 to 8 µg/mL (≈ 1.82 to 14.5 µM) in experiment [6].

As for `CO/N=C(\C(=O)N[C@@H]1C(=O)N2C(C(=O)O)=C(Sc3cccnc3CSC3CCNC3)CC[C@H]12)c1nc(N)sc1Cl` (stereo partly drawn) [42/1, (6R,7S,Z)-7-(2-(2-amino-5-chlorothiazol-4-yl)-2-(methoxyimino)acetamido)-8-oxo-3-(2-((pyrrolidin-3-ylthio)methyl)pyridin-3-ylthio)-1-aza-bicyclo[4.2.0]oct-2-ene-2-carboxylic Acid], the MIC in experiment [1] is not above 1 µg/mL; in experiment [2], 1 to 8 µg/mL (≈ 1.6 to 12.8 µM); in experiment [3] it was more than 8 µg/mL; in experiment [4], 1 to 8 µg/mL (≈ 1.6 to 12.8 µM); in experiment [5], 1 to 8 µg/mL (≈ 1.6 to 12.8 µM); in experiment [6], 1 to 8 µg/mL (≈ 1.6 to 12.8 µM).

With `CO/N=C(\C(=O)N[C@@H]1C(=O)N2C(C(=O)O)=C(Sc3ccncc3)CC[C@H]12)c1nsc(N)n1` [53/1, (6R,7S,Z)-7-(2-(5-amino-1,2,4-thiadiazol-3-yl)-2-(methoxyimino)acetamido)-8-oxo-3-(pyridin-4-ylthio)-1-aza-bicyclo[4.2.0]oct-2-ene-2-carboxylic Acid], the minimum inhibitory concentration (MIC) in experiment [1] was not above 1 µg/mL; in experiment [2], more than 8 µg/mL; in experiment [3] it was more than 8 µg/mL; in experiment [4], 1 to 8 µg/mL (≈ 2.1 to 16.8 µM); in experiment [6] it was 1 to 8 µg/mL (≈ 2.1 to 16.8 µM).

`CO/N=C(\C(=O)N[C@@H]1C(=O)N2C(C(=O)O)=C(Sc3nncs3)CC[C@H]12)c1nsc(N)n1` [50/1, (6R,7S,Z)-3-(1,3,4-thiadiazol-2-ylthio)-7-(2-(5-amino-1,2,4-thiadiazol-3-yl)-2-(methoxyimino)acetamido)-8-oxo-1-aza-bicyclo[4.2.0]oct-2-ene-2-carboxylic Acid]: the MIC in experiment [1] was not above 1 µg/mL; in experiment [2], more than 8 µg/mL; in experiment [3], more than 8 µg/mL; in experiment [4] it was 1 to 8 µg/mL (≈ 2.07 to 16.6 µM); in experiment [6] it was 1 to 8 µg/mL (≈ 2.07 to 16.6 µM).

Regarding `NCc1ncccc1SC1=C(C(=O)O)N2C(=O)[C@@H](NC(=O)/C(=N\O)c3nc(N)sc3Cl)[C@H]2CC1` [31/1, (6R,7S,Z)-7-(2-(2-amino-5-chlorothiazol-4-yl)-2-(hydroxyimino)acetamido)-3-(2-(aminomethyl)pyridin-3-ylthio)-8-oxo-1-aza-bicyclo[4.2.0]oct-2-ene-2-carboxylic Acid], the minimum inhibitory concentration (MIC) was not above 1 µg/mL in experiment [1]; 1 to 8 µg/mL (≈ 1.91 to 15.3 µM) in experiment [2]; 1 to 8 µg/mL (≈ 1.91 to 15.3 µM) in experiment [3]; not above 1 µg/mL in experiment [4]; not above 1 µg/mL in experiment [6].

As a reminder, the MIC is the smallest concentration in the dilution series that meets the test's criterion for growth inhibition.
